Test results reported in PMC8454092 (European Journal of Medicinal Chemistry, 2021).

Assays:
[1] = test system: SARS-CoV-2; assay type: cell-based; details: for IC50: read-out: VeroE6 IC50
[2] = test system: EBOV trVLP; assay type: cell-based, Ebola virus; details: for IC50: read-out: EBOV trVLP IC50
[3] = test system: SARS-CoV-2 RNA synthesis; assay type: cell-based
[4] = test system: EBOV trVLP RNA synthesis; assay type: cell-based, Ebola virus
[5] = test system: Ce-FF; assay type: cell-based; details: read-out: Ce-FF IC50
[6] = test system: Vero E6 cells
[7] = test system: Huh-7 cells
[8] = test system: X4 strain of HIV-1; details: cited from earlier work
[9] = human
[10] = test system: EBOV infection; details: in vivo; cited from earlier work
[11] = test system: Covid-19; details: human, in vivo; cited from earlier work

## CCSCCCCCCCCCCCC(=O)O [12-thioethyldodecanoic acid, reference compound]
[1]
  anti-SARS-CoV-2 activity in Vero E6 cells: did not exhibit any anti-SARS-CoV-2 activity
[2]
  activity against EBOV trVLP: no inhibitory activity

## CCCCCCCCCCCCCC(=O)O[C@@H]1[C@H](O)[C@@H](CO[P@@](=O)(N[C@H](C)C(=O)OCC(CC)CC)Oc2ccccc2)O[C@@]1(C#N)c1ccc2c(N)ncnn12 [Compound 3a, (2R,3R,4R,5R)-2-(4-Aminopyrrolo[2,1-f][1,2,4]triazin-7-yl)-2-cyano-5-((((((R)-1-(2-ethylbutoxy)-1-oxopropan-2-yl)amino)(phenoxy)phosphoryl)oxy)methyl)-4-hydroxytetra-hydrofuran-3-yl tetradecanoate]
[3]
  SARS-CoV-2 viral RNA synthesis: significant reduction in viral RNA synthesis
[4]
  EBOV trVLP viral RNA synthesis: significant reduction in viral RNA synthesis

## (2R,3R,4R,5R)-2-(4-Aminopyrrolo[2,1-f][1,2,4]triazin-7-yl)-2-cyano-5-((((((R)-1-(2-ethylbutoxy)-1-oxopropan-2-yl)amino)(phenoxy)phosphoryl)oxy)methyl)tetrahydrofuran-3,4-diyl ditetradecanoate [Compound 5b]
[1]
  IC50: > 50 µM
[2]
  activity against EBOV trVLP: no inhibitory activity
  IC50: > 50 µM
[5]
  IC50: > 50 µM
[4]
  EBOV trVLP viral RNA synthesis: significant reduction in viral RNA synthesis was observed for all compounds apart from disubstituted compound 5b
[6]
  CC50: > 50 µM
[7]
  CC50: > 50 µM

## CCCCCCCCCCCCCC(=O)OC[C@@H]1O[C@H](n2cc(F)c(N)nc2=O)CS1 [5′-O-tetradecanoyl derivative of FTC]
[8]
  fold more activity than FTC: 19 fold

## CCCCCCCCCCOCCC(=O)O [4-Oxatetradecanoic acid, reference compound]
[1]
  anti-SARS-CoV-2 activity in Vero E6 cells: did not exhibit any anti-SARS-CoV-2 activity
[2]
  activity against EBOV trVLP: no inhibitory activity

## CCC(CC)COC(=O)[C@H](C)N[P@](=O)(OC[C@H]1O[C@@](C#N)(c2ccc3c(N)ncnn23)[C@H](O)[C@@H]1O)Oc1ccccc1 [RDV, remdesivir, reference compound]
[3]
  SARS-CoV-2 viral RNA synthesis: significant reduction in viral RNA synthesis
[4]
  EBOV trVLP viral RNA synthesis: significant reduction in viral RNA synthesis
[9]
  active triphosphate metabolite observed at 12 h: approximately 22.2%
  active triphosphate metabolite observed at 24 h: 26.3%
  degradation after 1 h: around 13%
[10]
  mortality: 53%
[11]
  median time to recovery: 11 days
  mortality rate: 7.1%

## [N-]=[N+]=NCCCCCCCCCCCC(=O)O [12-Azidododecanoic acid, reference compound]
[1]
  anti-SARS-CoV-2 activity in Vero E6 cells: did not exhibit any anti-SARS-CoV-2 activity
[2]
  activity against EBOV trVLP: no inhibitory activity

## CCC(CC)COC(=O)[C@@H](C)N[P@](=O)(OC[C@H]1O[C@@](C#N)(c2ccc3c(N)ncnn23)[C@H](O)[C@@H]1OC(=O)CCCCCCCCCCCN=[N+]=[N-])Oc1ccccc1 [Compound 4c, (2R,3S,4R,5R)-5-(4-Aminopyrrolo[2,1-f][1,2,4]triazin-7-yl)-5-cyano-2-((((((R)-1-(2-ethylbutoxy)-1-oxopropan-2-yl)amino)(phenoxy)phosphoryl)oxy)methyl)-4-hydroxy-tetrahydrofuran-3-yl-12-azidododecanoate]
[9]
  active triphosphate metabolite observed at 8 h: 11.3%
  active triphosphate metabolite observed at 12 h: 10.04%
  active triphosphate metabolite observed at 24 h: 19.01%

## CCCCCCCCCCOCCC(=O)O[C@H]1[C@@H](O)[C@](C#N)(c2ccc3c(N)ncnn23)O[C@@H]1CO[P@@](=O)(N[C@H](C)C(=O)OCC(CC)CC)Oc1ccccc1 [Compound 4b, (2R,3S,4R,5R)-5-(4-Aminopyrrolo[2,1-f][1,2,4]triazin-7-yl)-5-cyano-2-((((((R)-1-(2-ethylbutoxy)-1-oxopropan-2-yl)amino)(phenoxy)phosphoryl)oxy)methyl)-4-hydroxy-tetrahydrofuran-3-yl-3-(decyloxy)propanoate]
[2]
  activity against EBOV trVLP: comparable activity with RDV
[3]
  SARS-CoV-2 viral RNA synthesis: significant reduction in viral RNA synthesis
[4]
  EBOV trVLP viral RNA synthesis: significant reduction in viral RNA synthesis

## CCCCCCCCCCCCCC(=O)O[C@H]1[C@@H](OC(=O)CCCCCCCCCCCCC)[C@](C#N)(c2ccc3c(N)ncnn23)O[C@@H]1CO[P@@](=O)(N[C@H](C)C(=O)OCC(CC)CC)Oc1ccccc1 [Compound 5a, ((2R,3R,4R,5R)-2-(4-Aminopyrrolo[2,1-f][1,2,4]triazin-7-yl)-2-cyano-5-((((((R)-1-(2-ethylbutoxy)-1-oxopropan-2-yl)amino)(phenoxy)phosphoryl)oxy)methyl)tetrahydro-furan-3,4-diyl ditetradecanoate]
[3]
  SARS-CoV-2 viral RNA synthesis: significant reduction in viral RNA synthesis was observed for all compounds apart from disubstituted compound 5a

## CCSCCCCCCCCCCCC(=O)O[C@@H]1[C@H](O)[C@@H](CO[P@@](=O)(N[C@H](C)C(=O)OCC(CC)CC)Oc2ccccc2)O[C@@]1(C#N)c1ccc2c(N)ncnn12 [Compound 3e]
[2]
  activity against EBOV trVLP: comparable with RDV

## (2R,3R,4R,5R)-2-(4-Aminopyrrolo[2,1-f][1,2,4]triazin-7-yl)-2-cyano-5-((((((R)-1-(2-ethylbutoxy)-1-oxopropan-2-yl)amino)(phenoxy)phosphoryl)oxy)methyl)-4-hydroxytetra hydrofuran-3-yl palmitate [Compound 3c]
[1]
  IC50: 4.6 µM
[2]
  IC50: 0.5 µM
[5]
  IC50: > 50 µM
[6]
  CC50: > 50 µM
[7]
  CC50: 27 µM

## CCCCCCCCCCOCCC(=O)O[C@@H]1[C@H](O)[C@@H](CO[P@@](=O)(N[C@H](C)C(=O)OCC(CC)CC)Oc2ccccc2)O[C@@]1(C#N)c1ccc2c(N)ncnn12 [Compound 3b]
[2]
  activity against EBOV trVLP: comparable with RDV

## CCCCCCCCCCCCCC(=O)O [Myristic acid, reference compound]
[1]
  anti-SARS-CoV-2 activity in Vero E6 cells: did not exhibit any anti-SARS-CoV-2 activity
[2]
  activity against EBOV trVLP: no inhibitory activity

B1: MAB114 (antibody, chains of the INN, looked up, V domains shown)
VH: EVQLVESGGGLIQPGGSLRLSCAASGFALRMYDMHWVRQTIDKRLEWVSAVGPSGDTTYADSVKGRFAVSRENAKNSLSLQMNSLTAGDTAIYYCVRSDRGVAGLFDSWGQGILVTVSS
VL: DIQMTQSPSSLSASVGDRITITCRASQAFDNYVAWYQQRPGKVPKLLISAASALHAGVPSRFSGSGSGTHFTLTISSLQPEDVATYYCQNYNSAPLTFGGGTKVEIK
[10]
  mortality: 35%
